Assay results as given in patent US7897627B2, “Heteroaryl derivatives as orexin receptor antagonists” (Hoffmann-La Roche Inc., priority 2007, dated 2011).

Target: T1, human orexin-2 (hOX2) receptor (Homo sapiens, UniProt O43614)
T1 construct: expressed in transfected cells
T1 sequence (O43614 1-444): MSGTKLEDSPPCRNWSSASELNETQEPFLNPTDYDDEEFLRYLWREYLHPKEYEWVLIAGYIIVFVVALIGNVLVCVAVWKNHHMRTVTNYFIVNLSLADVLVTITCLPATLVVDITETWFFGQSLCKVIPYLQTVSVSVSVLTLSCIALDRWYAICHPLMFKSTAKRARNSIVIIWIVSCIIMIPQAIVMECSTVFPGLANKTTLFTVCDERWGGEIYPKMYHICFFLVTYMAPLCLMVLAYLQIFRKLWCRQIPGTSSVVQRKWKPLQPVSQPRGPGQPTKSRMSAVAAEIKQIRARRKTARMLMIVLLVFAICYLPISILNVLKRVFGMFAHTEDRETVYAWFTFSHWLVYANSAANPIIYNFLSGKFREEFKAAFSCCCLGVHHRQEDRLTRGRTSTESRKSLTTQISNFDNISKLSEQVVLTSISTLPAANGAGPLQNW
Test: Intracellular Ca2+ mobilization assay (FLIPR), CHO(dHFr-) cells expressing hOX2, orexin-A as agonist
Format: cell-based
Conditions: antagonist Kb=IC50/(1+[A]/EC50); orexin-A at EC80; CHO(dHFr-)-OX2R cells; antagonist applied 25 min before agonist
Procedure: Intracellular Ca^2+ Mobilization Assay
The Chinese Hamster Ovary (dHFr-) mutant cell line stably expressing human orexin-1 (hOX1) or human orexin-2 (hOX2) receptors were maintained in Dulbecco's Modified Eagle Medium (1×) with GlutaMax™1, 4500 mg/L D-Glucose and Sodium Pyruvate (Catalog No. 31966-021, Invitrogen, Carlsbad, Calif.), 5% dialyzed fetal calf serum (Catalog No. 26400-044), 100 μg/ml penicillin and 100 μg/ml streptomycin. The cells were seeded at 5×10^4 cells/well in the poly-D-lysine treated, 96-well, black/clear-bottomed plates (Catalog No. BD356640, BD Biosciences, Palo Alto, Calif.). 24 h later, the cells were loaded for 1 h at 37° C. with 4 μM Flou-4 acetoxymethyl ester (Catalog No. F-14202, Molecular Probes, Eugene, Oreg.) in FLIPR buffer (1×HBSS, 20 mM HEPES, 2.5 mM Probenecid). Hanks' Balanced Salt Solution (HBSS) (10×) (catalog No. 14065-049) and HEPES (1M) (catalog No. 15630-056) were purchased from Invitrogen, Carlsbad, Calif. Probenecid (250 mM) (catalog No. P8761) was from Sigma, Buchs, Switzerland. The cells were washed five times with FLIPR buffer to remove excess dye and intracellular calcium mobilization, [Ca^2−]i were measured using a Fluorometric Imaging Plate Reader (FLIPR-96, Molecular Devices, Menlo Park, Calif.) as described previously (Malherbe et al., Mol. Pharmacol., 64, 823-832, 2003). Orexin A (catalog No. 1455, Toris Cookson Ltd, Bristol, UK) was used as agonist. Orexin A ([…] stock solution in DMSO) was diluted in FLIPR buffer+0.1% BSA. The EC50 and EC80 values of orexin-A were measured daily from standard agonist concentration-response curves in CHO(dHFr-)-OX1R and -OX2R cell lines. All compounds were dissolved in 100% DMSO. Inhibition curves were determined by addition of 11 concentrations (0.0001-10 μM) of inhibitory compounds and using EC80 value of orexin-A as agonist (a concentration which gave 80% of max agonist response, determined daily). The antagonists were applied 25 min (incubation at 37° C.) before the application of the agonist. Responses were measured as peak increase in fluorescence minus basal, normalized to the maximal stimulatory effect induced by EC80 value of orexin-A or orexin-B. Inhibition curves were fitted according to the Hill equation: y=100/(1+(x/IC50)^nH), where nH=slope factor using Excel-fit 4 software (Microsoft).
Kb values were calculated according to the following equation Kb=IC50/(1+[A]/EC50) where A is the concentration of agonist added which is very close to agonist EC80 value, and IC50 and EC50 values were derived from the antagonist inhibition and orexin-A or B agonist curves, respectively.

Row | Kb [µM] | Compound
1 | 0.0104 | COc1cccc(OC)c1C(=O)N1CCC(Nc2cnc3ccccc3n2)C1 (stereo not shown) [Example 6, (2,6-Dimethoxy-phenyl)-[3-(quinoxalin-2-ylamino)-pyrrolidin-1-yl]-methanone]
2 | 0.0228 | COc1cccc(OC)c1C(=O)N1CCC(Nc2nc3ccc(Cl)cc3s2)C1 (stereo not shown) [Example 7, [3-(6-Chloro-benzothiazol-2-ylamino)-pyrrolidin-1-yl]-(2,6-dimethoxy-phenyl)-methanone]
3 | 0.0415 | COc1cccc(OC)c1C(=O)N1CC[C@@H](Nc2cnc3ccccc3n2)C1 [Example 24, (2,6-Dimethoxy-phenyl)-[(R)-3-(quinoxalin-2-ylamino)-pyrrolidin-1-yl]-methanone]
4 | 0.0096 | O=C(c1ccccc1-n1cccc1)N1CC[C@@H](Nc2nc3ccc(Cl)cc3o2)C1 [Example 28, [(R)-3-(6-Chloro-benzooxazol-2-ylamino)-pyrrolidin-1-yl]-(2-pyrrol-1-yl-phenyl)-methanone]
5 | 0.0354 | O=C(c1c(Cl)cccc1Cl)N1CC[C@@H](Nc2nc3ccc(Cl)cc3o2)C1 [Example 33, [(R)-3-(6-Chloro-benzooxazol-2-ylamino)-pyrrolidin-1-yl]-(2,6-dichloro-phenyl)-methanone]
6 | 0.045 | Cc1cccc(Cl)c1C(=O)N1CC[C@@H](Nc2nc3ccc(Cl)cc3o2)C1 [Example 35, [(R)-3-(6-Chloro-benzooxazol-2-ylamino)-pyrrolidin-1-yl]-(2-chloro-6-methyl-phenyl)-methanone]
7 | 0.0302 | COc1cccc(OC)c1C(=O)N1CC[C@@H](Nc2cnc3cc(Cl)ccc3n2)C1 [Example 41, [(R)-3-(6-Chloro-quinoxalin-2-ylamino)-pyrrolidin-1-yl]-(2,6-dimethoxy-phenyl)-methanone]
8 | 0.0249 | CCOc1ccccc1C(=O)N1CC[C@@H](Nc2nc3ccc(Cl)cc3o2)C1 [Example 52, [(R)-3-(6-Chloro-benzooxazol-2-ylamino)-pyrrolidin-1-yl]-(2-ethoxy-phenyl)-methanone]
9 | 0.0025 | O=C(c1ccccc1-c1ccco1)N1CC[C@@H](Nc2nc3ccc(Cl)cc3o2)C1 [Example 57, [(R)-3-(6-Chloro-benzooxazol-2-ylamino)-pyrrolidin-1-yl]-(2-furan-2-yl-phenyl)-methanone]

The next lines start with the compound.

Row | Compound | Kb [µM]
10 | COc1cccc(OC)c1C(=O)N1CCC(Nc2nc3ccc(Cl)cc3o2)C1 (stereo not shown) [Example 1, [3-(6-Chloro-benzooxazol-2-ylamino)-pyrrolidin-1-yl]-(2,6-dimethoxy-phenyl)-methanone] | 0.0279
11 | COc1cccc(OC)c1C(=O)N1CC[C@@H](Nc2nc3ccc(Cl)cc3o2)C1 [Example 5, [(R)-3-(6-Chloro-benzooxazol-2-ylamino)-pyrrolidin-1-yl]-(2,6-dimethoxy-phenyl)-methanone] | 0.0242
12 | COc1cccc(OC)c1C(=O)N1CC[C@@H](Nc2nc3ccc(Cl)cc3s2)C1 [Example 25, [(R)-3-(6-Chloro-benzothiazol-2-ylamino)-pyrrolidin-1-yl]-(2,6-dimethoxy-phenyl)-methanone] | 0.0163
13 | COc1cccc(OC)c1C(=O)N1CC[C@@H](Nc2nc3c(Cl)cccc3s2)C1 [Example 43, [(R)-3-(4-Chloro-benzothiazol-2-ylamino)-pyrrolidin-1-yl]-(2,6-dimethoxy-phenyl)-methanone] | 0.0015
14 | CCc1ccccc1C(=O)N1CC[C@@H](Nc2nc3ccc(Cl)cc3o2)C1 [Example 47, [(R)-3-(6-Chloro-benzooxazol-2-ylamino)-pyrrolidin-1-yl]-(2-ethyl-phenyl)-methanone] | 0.0377
15 | CSc1ccccc1C(=O)N1CC[C@@H](Nc2nc3ccc(Cl)cc3o2)C1 [Example 53, [(R)-3-(6-Chloro-benzooxazol-2-ylamino)-pyrrolidin-1-yl]-(2-methylsulfanyl-phenyl)-methanone] | 0.0299
16 | O=C(c1ccccc1OC(F)F)N1CC[C@@H](Nc2nc3ccc(Cl)cc3o2)C1 [Example 56, [(R)-3-(6-Chloro-benzooxazol-2-ylamino)-pyrrolidin-1-yl]-(2-difluoromethoxy-phenyl)-methanone] | 0.047
